Experimental data: patent publication US20080118980A1, “Estrogen Enhancing Differentiation of Human Mesenchymal Stromal Cells and Adipose-derived Stromal Cells” (The Board of Trustees of the University of Illinois,, priority 2006, published 2008)

How the values were obtained:
[1] = tested on: rat bone MSCs; experiment: Proliferation of rat bone MSCs with E2 modulation (MTS, Example 4); format: cell-based; conditions: for cell proliferation (absorbance at 540 nm) vs control: 10^−9 and 10^−6 M E2, day 3, FIG. 9A; for E2 concentration of proliferation peak: day 3
Experimental: Three month-old, male and female Fisher 344 rats (Charles River Lab., Wilmington, Mass.) were purchased and euthanized by CO^2 inhalation. The tibias and femurs were dissected and bone marrow plugs were flushed out with a syringe (18-gauge needle), and filled with a basic medium consisting of DMEM, 10%FBS and 1% antibiotic-antimycotic. Cells were counted on a hemacytometer, plated at 5×10^7 cells/100-mm petri dish and incubated with basic DMEM medium at 37° C. in 5% CO2. The MSCs were isolated by removing unattached cells via medium exchange. The MSCs were incubated up to 80% confluence and then subcultured at a density of 10^6/100-mm dish. Prior to confluence, the MSCs were trypsinized, counted and used for measuring proliferation rate using E2 modulation.
In order to analyze the estrogen function on cell proliferation, 500 of passage-1 MSCs were placed into each well of 96-well plates and exposed to basic medium supplemented with different concentrations of E2 (10^−6M to 10^−9M) (Sigma, St. Louis, Mo.). On day 3, the cell proliferation with different estrogen modulations were quantified using a MTS calorimetric method according to manufacturer's manual (CellTiter 96® Queous One Solution Cell Proliferation Assay, Promega, Madison, Wis.)

[2] = tested on: human ASCs; experiment: Osteogenic differentiation of ASCs modulated by E2 (Example 2); format: cell-based
Experimental: Because estrogen receptors (ERs) exist in adipose tissues (Dieudonne et al. (2004) Am J Physiol Cell Physiol. 286:C655-661), it is hypothesized that estrogen can also modulate the differentiation potentials of ASCs. All the experiments using human ASCs were performed under an approved IRB protocol of the University of Illinois at Chicago. Human abdomen subcutaneous adipose tissue was obtained from a healthy person with lipo-aspirated surgery. ASCs were isolated from adipose tissue according to previous studies (Hong et al. (2006) Cells Tissues Organs. 183 (3):133-40). Briefly, adipose tissue was finely minced and then digested with 0.075 wt % collagenase type I (Sigma, St Louis, Mo.) at 37° C. for 45 min with intermittent shaking. The cells were collected by filtration with a cell strainer with pore size of 100 μm diameter (Fisher Scientific, Barrington, Ill.). The harvested cells were cultured in a Dulbecco's Modified Eagle's Medium (DMEM), 15% fetal bovine serum (FBS) and 1% antibiotic-antimycotic at 10^6 cells/100 mm dish. Upon reaching 80-90% confluence, the isolated cells were trypsinized, counted, and subcultured at a density of 10^5 cells/100 mm dish as passage-1. The cells used for study are passage-3.
The basic medium supplemented with 100 nM dexamethasone, 10 mM β-glycerophosphate, and 0.05 mM ascorbic acid-2-phosphate was used to differentiate ASCs into an osteogenic cell lineage. Human ASCs were seeded at a cell density of 10^4 cells/cm^2 on 12-well plates and 100 mm petri dishes. Upon reaching 70% confluence, counting as day-0, the cells were exposed to osteogenic differentiation medium supplemented with different concentrations of E2 (from 10^−8 to 10^−11 M). On day 7, the cells cultured on petri dishes were collected for assessment of gene expressions of osteogenic specific markers and estrogen receptors (ERs) by reverse transcriptase polymerase chain reaction (RT-PCR) analysis. On day 14, the cells cultured in 12-well plates were analyzed for DNA, extracellular matrix, alkaline phosphatase (ALP) activity and calcium content.
On the defined day, cells cultured in 12-well plates were washed twice with phosphate buffered solution (PBS), suspended and lysed in 1% Triton-X100 solution (Sigma, St. Louis, Mo.). The collected cells were subsequently homogenized using sonication (Dismembrator Model 100, Fisher Scientific, Barrington, Ill.). The DNA content in the cells was determined by a fluorometric assay using a spectrofluorometer and DNA quantification kit (Hoechst 33258, Bio-Rad, Hercules, Calif.). The total protein concentrations of lysates were measured by a simple colorimetric assay based on the Bradford dye-binding procedure (Bio-Rad, Hercules, Calif.). The amount of protein was normalized by the unit of DNA.
ALP activity was assessed qualitatively by ALP staining. The cultured cells were fixed in 10% paraformaldehyde and incubated with 120 mM Tris buffer, pH 8.4, containing 0.9 mM Naphtol AS-MX Phosphate (Sigma, St. Louis, Mo.) and 1.8 mM Fast Red TR. After 45 min at room temperature, the cultures were washed with deionized water. Mineral deposition in the extracellular matrix was presented by von Kossa staining. The fixed cells were incubated in 2.5% (w/v) silver nitrate (Sigma, St. Louis, Mo.) solution for 30 min in sunlight. In order to quantify ALP activity and calcium content, cultured cells were washed twice with PBS, suspended and lysed in 0.5 ml of 1% Triton-X100 solution. ALP and calcium content were measured by spectrophotometry with a colorimetric kit according to the manufacturer's instructions (Raichem, San Diego, Calif.).
Total RNA was extracted from the various differentiated cells using TRizol reagent (Invitrogen, Carlsbad, Calif.). Approximately 5 μg of total RNA was converted to single stranded cDNA using a commercial cDNA synthesis kit (Invitrogen, Carlsbad, Calif.). […]

Q: For `C[C@]12CC[C@@H]3c4ccc(O)cc4CC[C@H]3[C@@H]1CC[C@@H]2O` [E2, 17-β estradiol], which “cell proliferation (absorbance at 540 nm) vs control” value ([1]; female MSCs) is on record?
A: significantly higher

Q: And the “E2 concentration of proliferation peak” value ([1]; female bone MSCs)?
A: 10^−6 M

Q: And the “cell proliferation (absorbance at 540 nm) vs control” value ([1]; male MSCs)?
A: significantly higher

Q: And the “E2 concentration of proliferation peak” value ([1]; male bone MSCs)?
A: 10^−9 M

Q: And the “OCN expression (RT-PCR)” value ([2]; 7 days, estrogen supplement 10^−8 M)?
A: only expressed

Q: What about the “ERβ expression (RT-PCR)” value ([2]; 7 days, estrogen supplement 10^−11 M) of the same compound?
A: light bands

Q: What about the “ALP and cbfa-1 expression (RT-PCR bands)” value ([2]; 7 days, vs cells grown in the absence of estrogen, FIG. 4) of the same compound?
A: intense bands

Q: And the “staining for ALP and von Kossa” value ([2]; ASCs, osteogenic medium supplemented with E2)?
A: Intense staining

Q: What about the ALP activities ([2]; E2 10^−9 and 10^−8 M, after 14 days, FIG. 5B) of the same compound?
A: significantly improved

Q: What about the “proliferation during osteogenesis (DNA content)” value ([2]; day 14, FIG. 5A) of the same compound?
A: does not increase proliferation

Q: And the “calcium content (mineralization of the extracellular matrix)” value ([2]; day 14, most notably at 10^−8 M, FIG. 5D)?
A: significantly increased

Q: What about the “protein content (extracellular matrix synthesis)” value ([2]; day 14, normalized by DNA, FIG. 5C) of the same compound?
A: increased
